Patent publication US20240335539A1, “MODULATION OF BCL-2 TO ENHANCE CHIMERIC ANTIGEN RECEPTOR CANCER IMMUNOTHERAPY EFFICACY” (The Trustees of the University of Pennsylvania, priority 2021, published 2024)

How the values were obtained:
tumor cells = conditions: Karlsson et al. 2013; Yang et al. 2020; cited from earlier work
[1] = test system: MINO, Z-138, MAVER, OCI-Ly18, SU-DHL-4, NALM6, MOLM-14; assay: CART plus venetoclax or AZD5991 tumor killing, 48 hours; type: cell-based; conditions: AZD5991 125 nM, with CART19 (CART33 for MOLM-14)
Method: To investigate whether inhibition of MCL-1, another key anti-apoptotic regulator, lead to enhancement of tumor killing, various B-cell malignant (luciferase+) cell lines were co-cultured with either vehicle (DMSO), venetoclax or AZD5991 in the presence of CART19 for 48 hours and change of luminescence intensity was measured to quantify the tumor killing. To test the combination effect of CART/drug in different tumor types, AML cell lines (luciferase positive MOLM-14) were co-cultured with CART33 in the presence of either venetoclax or AZD5991. Tumor killing (%) was calculated using the formula: (sample−maximal tumor growth)/(lysis control−maximal tumor growth)×100. MINO (Venetoclax: 1 nM, AZD5991: 125 nM), Z-138 (Venetoclax: 25 nM, AZD5991: 125 nM), MAVER (Venetoclax: 25 nM, AZD5991: 125 nM), OCI-Ly18 (Venetoclax: 10 nM, AZD5991: 125 nM), SU-DHL-4 (Venetoclax: 500 nM, AZD5991: 125 nM), NALM6 (Venetoclax: 500 nM, AZD5991: 125 nM), MOLM-14 (Venetoclax: 125 nM, AZD5991: 125 nM). […] CART19: anti-CD19 CAR T cell.
CART19 cells were co-cultured with either vehicle (DMSO) or venetoclax and cytotoxicity was measured at 48 hours. […] This effect was further confirmed using primary NHL cells (MCL) (FIG. 1D). […]

CART19 = assay: AZD5991 CART cell toxicity, co-culture with irradiated NALM6 for 120 hours; type: cell-based, human; conditions: 110-10000 nM, E:T 0.25:1
Method: To quantify CART cell toxicity, CART19 was co-cultured with irradiated NALM6 in the presence of either vehicle (DMSO), venetoclax or AZD5991 for 120 hours. After co-culture, samples were stained with anti-CD3 antibody and anti-CAR19 idiotype antibody to distinguish between effector (T cells) and target cells (NALM6). Survival of CART cell were then measured by using flow cytometry. E:T ratio=0.25:1. Concentrations of venetoclax and AZD5991: 110 nM, 330 nM, 1100 nM, 3300 nM and 10000 nM. […] All data represent mean±SD. **P<0.005, *P<0.05. ns: not significant.
To investigate this hypothesis, the expansion and persistence of CART19 cells in the peripheral blood of NSG mice treated with CART19 plus venetoclax or CART19 alone was analyzed using flow cytometry. […] To test whether prolonged exposure to venetoclax leads to CART cell toxicity, an in vitro venetoclax toxicity assay was performed using CART cells manufactured from 8 different T cell donors. […] Of note, the level of toxicity to CART cells varied among the different T cell donors, likely due to different apoptotic priming statuses at baseline. […] In order to discern whether the reduced survival was due to increased apoptosis or reduction of proliferation, the caspase 3/7 activity in CART19 was assessed in the presence or absence of venetoclax. […]

NALM6 = assay: Targeted pro-apoptotic small molecule screening with CART19 against NALM6, killing by luminescence at 48 hours; conditions: drug 100 and 1000 nM with CART19
Method: Killing of NALM6 cells was quantified at 48 hours by luminescence. Drug screening of pro-apoptotic small molecules was performed with two concentrations (100 and 1000 nM). […] Two concentrations of 29 drugs were used (100 nM and 1000 nM). Killing of NALM6 cells was assessed at 48 hours by luminescence. […] UTD: untransduced T cells; CART19: anti-CD19 CAR T cell; MCL: mantle cell lymphoma; E:T=ratio of effector to target; IAP: Inhibition of apoptosis protein.
CART19 and NALM6 (luciferase+) cells were seeded at a ratio of 0.08E:1T (i.e., 600 CART: 7000 NALM6) per well in 25 μl of growth medium (RPMI1640+10% FBS+1% Pen-strep+1% glutamine) of 384-well Corning 3570 microplate using a Multidrop™ Combi Reagent Dispenser (Thermo Scientific). Following cell seeding, drugs (50 nL) were transferred to assay plates using a 50 nL slotted pin tool (V&P Scientific) and a JANUS Automated Workstation (Perkin Elmer). Compounds/drugs were added to a final concentration of 1 μM in 0.2% DMSO. Columns 1 and 23 were treated with 0.2% DMSO (negative control). […] Luminescence was measured on an EnVision Xcite Multilabel Plate Reader (PerkinElmer), using the ultrasensitive luminescence measurement technology.
In order to screen pro-apoptotic small molecules that can enhance CART cell killing, a targeted screening assay was performed. […] Tumor killing was measured by luminescence at 48 hours.

CART19-BCL-2(WT) = assay: Cytotoxicity of doxorubicin on CART cells, 24 hours; type: cell-based, human; conditions: doxorubicin 300 and 1000 nM
Excerpt: FIGS. 26A-26H illustrate the finding that increased BCL-2 expression in T cells from CART apheretic products is associated with positive clinical outcomes in lymphoma patients at long term. FIG. 26A is a schematic description of the approach taken to investigate the relationship between the level of BCL-2 and CART's clinical response. RNA was extracted from T cells from apheretic products of 38 lymphoma patients who received CART19 immunotherapy (CTL019, i.e., tisagenleucleucel) in the clinical trial (NCT02030834). Next, BCL-2 mRNA expression was quantified via the nCounter analysis system (NanoString Technologies, Inc, Seattle, WA). FIG. 26B is a volcano plot showing differential gene expression in T cells based on best overall response (CR or NR). […] EGFR: Epidermal growth factor receptor.
Nevertheless, to further investigate the safety profile of this approach, whether CART19-BCL-2(WT) cells are still sensitive to conventional cytotoxic drugs such as chemotherapy (e.g., doxorubicin) was assessed. […] Furthermore, to enhance the safety profile of CART19-BCL-2(WT) cells, a CART suicide system (Paszkiewicz, et al., The Journal of clinical investigation 2016; 126(11):4262-72) was employed by expressing truncated EGFR into CART19-BCL-2(WT).

CN(C)CC[C@H](CSc1ccccc1)Nc1ccc(S(=O)(=O)NC(=O)c2ccc(N3CCN(Cc4ccccc4-c4ccc(Cl)cc4)CC3)cc2)cc1[N+](=O)[O-] [ABT737]
CART-mediated tumor killing (literature) (tumor cells): significant increase of CART-mediated tumor killing

Cc1c2c(nn1C)CSCc1cc(n(C)n1)CSc1cc(c3ccccc3c1)OCCCc1c(C(=O)O)n(C)c3c-2c(Cl)ccc13 [AZD5991]
Enhancement of tumor killing in presence of CART [1]: venetoclax, but not AZD5991 (MCL-1 inhibitor), leads to enhancement of tumor killing
CART cell toxicity (CART survival) (CART19): induces severe CART cell toxicity

CC[C@H](NC(=O)[C@H](C)NC)C(=O)N1C[C@@H](O)C[C@H]1Cc1c(-c2[nH]c3cc(F)ccc3c2C[C@@H]2C[C@H](O)CN2C(=O)[C@H](CC)NC(=O)[C@H](C)NC)[nH]c2cc(F)ccc12 [birinapant]
Enhancement of CART19 killing / CART cell cytotoxicity (NALM6): increased CART cell cytotoxicity

COc1cccc2c1C(=O)c1c(O)c3c(c(O)c1C2=O)C[C@@](O)(C(=O)CO)C[C@@H]3O[C@H]1C[C@H](N)[C@H](O)[C@H](C)O1 [doxorubicin]
Elimination of BCL-2-expressing CART cells (CART19-BCL-2(WT)): fast and effective elimination of CART19-BCL-2(WT)
